Assay results as given in US20240245780A1, “PHARMACEUTICAL COMPOSITIONS CONTAINING STABLE AMORPHOUS SOLID SOLUTIONS AND DISPERSIONS” (Eastman Chemical Company, priority 2021, published 2024).
Where two headings read alike, the source gives them in different places.

Tests used:
[1] = Solubility study of PSD in heated SAIB, HPLC; format: physicochemical
Method: Analysis of drugs was performed by HPLC. […] Solubility was determined in three replicates for each drug.
SAIB was heated to 150° C. (RFX, DST, DLT, CYS, ITZ, SRL, APT and CBZ) or 130° C. (TAC and APZ), followed by addition of a known amount of the drug to dissolve in 30 min. Approximately, 100 mg of each sample were transferred to a 100-mL volumetric flask, and volume was made up with the mobile phase to dissolve the drug. The amount of dissolved drug was determined by validated HPLC.

[2] = cited from earlier work
[3] = JECFA 1996, including pediatric populations; cited from earlier work
[4] = SAIB temperature 150° C., 30 min, three replicates

Cc1nc(Nc2ncc(C(=O)Nc3c(C)cccc3Cl)s2)cc(N2CCN(CCO)CC2)n1 [Dasatinib]
Solubility in SAIB [1, 4]: insoluble

C[C@@H]1CCO[C@H]2Cn3cc(C(=O)NCc4ccc(F)cc4F)c(=O)c(O)c3C(=O)N12 [Dolutegravir]
Solubility in SAIB [1, 4]: 1.7 ± 0.4 mg/g | pKa [2]: 8

NC(=O)N1c2ccccc2C=Cc2ccccc21 [Carbamazepine]
Increase in Solubility Relative to Water [1]: 532.3x | Solubility in SAIB (in words) ([1]; SAIB at 130 or 150° C.): high solubility | Solubility in SAIB [1, 4]: 76.5 ± 4.0 mg/g | Solubility in SAIB ([1]; SAIB temperature 150° C., 30 min, three replicates, listed as CBZ): 76.5 ± 4.0 mg/g

O=C1CCc2ccc(OCCCCN3CCN(c4cccc(Cl)c4Cl)CC3)cc2N1 [Aripiprazole]
Solubility in SAIB [1]: 21.6 ± 2.6 mg/g

CO[C@H]1/C=C/O[C@@]2(C)Oc3c(C)c(O)c4c(O)c(c5c(nc6cc(C)ccn65)c4c3C2=O)NC(=O)/C(C)=C\C=C\[C@H](C)[C@H](O)[C@@H](C)[C@@H](O)[C@@H](C)[C@H](OC(C)=O)[C@@H]1C [Rifaximin]
Solubility in SAIB (in words) [1]: high solubility | pKa [2]: 7

CCC(C)n1ncn(-c2ccc(N3CCN(c4ccc(OCC5COC(Cn6cncn6)(c6ccc(Cl)cc6Cl)O5)cc4)CC3)cc2)c1=O (stereo not shown) [Itraconazole]
Solubility in SAIB [1, 4]: insoluble

CO[C@H]1C[C@@H]2CC[C@@H](C)[C@@](O)(O2)C(=O)C(=O)N2CCCC[C@H]2C(=O)O[C@H]([C@H](C)C[C@@H]2CC[C@@H](O)[C@H](OC)C2)CC(=O)[C@H](C)/C=C(\C)[C@@H](O)[C@@H](OC)C(=O)[C@H](C)C[C@H](C)/C=C/C=C/C=C/1C [Sirolimus]
Solubility in SAIB [1, 4]: 1.9 ± 0.0 mg/g | pKa [2]: 10

C=CC[C@@H]1/C=C(\C)C[C@H](C)C[C@H](OC)[C@H]2O[C@@](O)(C(=O)C(=O)N3CCCC[C@H]3C(=O)O[C@H](/C(C)=C/[C@@H]3CC[C@@H](O)[C@H](OC)C3)[C@H](C)[C@@H](O)CC1=O)[C@H](C)C[C@@H]2OC [Tacrolimus]
Increase in Solubility Relative to Water [1]: 9591.7x | Solubility in SAIB (in words) ([1]; SAIB at 130 or 150° C.): high solubility | Solubility in SAIB ([1]; SAIB temperature 130° C., 30 min, three replicates, listed as TAC): 115.1 ± 2.3 mg/g | Solubility in SAIB ([1]; SAIB temperature 130° C., 30 min, three replicates, listed as Tracolimus): 115.1 ± 2.3 mg/g | pKa [2]: 10

C[C@@H](O[C@H]1OCCN(Cc2n[nH]c(=O)[nH]2)[C@H]1c1ccc(F)cc1)c1cc(C(F)(F)F)cc(C(F)(F)F)c1 [Aprepitant]
Increase in Solubility Relative to Water [1]: 55.7x | pKa [2]: 10

sucrose acetate isobutyrate [SAIB]
permanent acceptable daily intake [3]: up to 20 mg/kg body weight | log P of SAIB [2]: 6
